Results on one compound are retold here after paper PMC9132363 (Journal of Medicinal Chemistry, 2022).

Structures are written as SMILES. Where two headings read alike, the source gives them in different places. A value given as a limit tells only on which side of the number the result lay.

For data set [1], the target named is NRF2–KEAP1 protein–protein interaction (Homo sapiens, UniProt Q14145). The data set can be described thus: Fluorescence polarization (FP) assay. It counts as binding. (Polarisation of emitted light reports the rotation of a fluorescent probe.)
NRF2–KEAP1 protein–protein interaction, sequence (Q14145 whole entry): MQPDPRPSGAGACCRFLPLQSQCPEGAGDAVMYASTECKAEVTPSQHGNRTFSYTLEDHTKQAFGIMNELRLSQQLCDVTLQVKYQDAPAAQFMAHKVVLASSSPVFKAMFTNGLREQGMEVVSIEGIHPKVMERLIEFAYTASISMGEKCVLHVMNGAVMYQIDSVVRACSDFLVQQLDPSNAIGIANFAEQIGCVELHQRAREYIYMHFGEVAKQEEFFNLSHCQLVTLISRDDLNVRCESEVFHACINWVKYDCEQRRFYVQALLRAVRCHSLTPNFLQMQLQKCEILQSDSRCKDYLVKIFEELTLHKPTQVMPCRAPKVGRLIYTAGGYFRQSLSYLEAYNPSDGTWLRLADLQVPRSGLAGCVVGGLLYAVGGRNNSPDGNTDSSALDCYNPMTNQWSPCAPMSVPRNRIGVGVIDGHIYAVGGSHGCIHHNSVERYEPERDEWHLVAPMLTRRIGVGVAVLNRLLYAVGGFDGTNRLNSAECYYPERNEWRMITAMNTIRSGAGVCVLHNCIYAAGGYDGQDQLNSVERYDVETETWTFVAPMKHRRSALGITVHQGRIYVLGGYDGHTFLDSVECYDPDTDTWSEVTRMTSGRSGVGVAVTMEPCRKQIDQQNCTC
Data set [2] deals with GSK-3β (Homo sapiens, UniProt P49841). The data set can be described thus: GSK-3β kinase inhibition. It counts as biochemical.
GSK-3β, sequence (P49841 whole entry, species assumed): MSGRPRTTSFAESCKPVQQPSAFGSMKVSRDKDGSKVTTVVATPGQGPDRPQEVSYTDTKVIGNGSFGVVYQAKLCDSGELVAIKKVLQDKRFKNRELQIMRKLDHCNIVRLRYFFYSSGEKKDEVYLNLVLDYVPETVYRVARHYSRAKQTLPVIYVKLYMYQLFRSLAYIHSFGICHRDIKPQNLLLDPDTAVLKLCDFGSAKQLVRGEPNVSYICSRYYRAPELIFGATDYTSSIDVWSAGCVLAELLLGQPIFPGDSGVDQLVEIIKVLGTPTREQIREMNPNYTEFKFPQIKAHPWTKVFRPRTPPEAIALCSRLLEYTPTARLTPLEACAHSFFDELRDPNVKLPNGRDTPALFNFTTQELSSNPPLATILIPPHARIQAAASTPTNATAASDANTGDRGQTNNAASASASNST
The test system of data set [3] is Keap1+/+ MEFs. Put plainly: qRT-PCR of NRF2 target genes in wild-type MEFs. Type of data set: cell-based, mouse. As to conditions: 20 μM, 4, 8 and 24 h. Here is the method:
Human embryonic kidney (HEK) 293T cells were grown in Dulbecco’s modified Eagle’s medium (DMEM) supplemented with 10% fetal bovine serum and 80 μg/mL gentamycin. Transient transfections were performed with calcium phosphate using reagents from Sigma. The Keap1^–/– mouse embryo fibroblasts (MEFs) and their corresponding wild-type Keap1^+/+ MEFs were kindly provided by Dr. Ken Itoh (Department of Stress Response Science, Center for Advanced Medical Science, Hirosaki University, Japan). MEFs were grown in DMEM supplemented with 10% fetal bovine serum, 1% penicillin/streptomycin, and 2 mm L-glutamine. SH-SY5Y cells were grown in DMEM and Ham’s F12 supplemented with 10% fetal bovine serum (FBS) and 1% penicillin/streptomycin. The medium was changed to serum-free DMEM without antibiotics 16 h before treatments. DMF (cat. no. 242926, Sigma-Aldrich) was used at 20 μM for 16 h.
Total RNA extraction, reverse transcription, and quantitative polymerase chain reaction (PCR) were done as detailed in previous articles.[72] Primer sequences are shown in Supporting Information Table S5. Data analysis was based on the ΔΔCT method with normalization of the raw data to housekeeping genes (Applied Biosystems). All PCRs were performed in triplicates.

For data set [4], the system named is TDP-43 in lymphoblasts from ALS patients. Put plainly: TDP-43 phosphorylation and expression in lymphoblasts (immunoblot). It counts as cell-based, human. As to conditions: 20 µM, 24 hours. Here is the method: Figure S1. Lack of effect of compound 1d against aberrant TDP-43 phosphorylation in sporadic ALS and […]
Representative immunoblot showing the phosphorylation status of TDP-43 in immortalized lymphocytes from control and sporadic ALS individuals. Cells were seeded at an initial density of 1 x 106 x ml-1 in the absence or presence of compound 1d (20 µM). 24 hours after compound addition, cells were harvested and processed for Western blotting analysis. The plot in the left panel (a) represents the quantification of the bands of 43 KD of pTDP-43 normalized by total-TDP-43. The densitometric analyses represent the mean ± SEM of different observations carried […]
43 expression (b) in lymphoblasts from ALS patients.
(1 picture or pasted object on this page, not shown here)
(In general: In western blotting, separated proteins are transferred to a membrane and probed.)

Data set [5] can be described thus: MTT viability assay. As to conditions: human, HEK293T cells, HEK293T, 16 h, read-out: Cell viability (MTT). Type of data set: cell-based, human. On the procedure:
(§1) HEK293T cells were plated in 24-well culture plates (75,000 cells/well) and incubated in a CO2 incubator. The next day, treatment was given according to the experimental requirement. Sixteen hours later, 50 μL of MTT solutions from the stock (5 mg/mL) was added, and cells were incubated in a CO2 incubator in the dark for 2 h. The medium was removed, and formazan crystals formed by the cells were dissolved using 500 μL of DMSO followed by transfer in 96-well plates. The absorbance was read at a 570 nm wavelength on a multiwell plate reader.[70]

Data set [6] relates to HEK293T cells. The data set can be described thus: MTT viability assay. Type of data set: cell-based, human. As to conditions: 20 µM, Table S3. On the procedure: as §1
Data set [7] has as its target KEAP1 (Homo sapiens, UniProt Q14145). Put plainly: Differential scanning fluorimetry (DSF) assay. Type of data set: binding. As to conditions: 100 μM; difference from KEAP1 alone (Ti 61.3 °C). A general note: In DSF a fluorescence change marks the thermal transition of the protein.
In data set [8] the test system is control lymphoblasts. The data set can be described thus: NRF2 pathway in control lymphoblasts. As to conditions: 20 μM, 24 h. Type of data set: cell-based, human. From the text: (§2) Peripheral blood samples of all the individuals enrolled in this study were collected after written informed consent of the patients or their relatives (demographic information is presented in Table 9) to establish the lymphoblastoid cell lines (LCLs), by infecting peripheral blood lymphocytes with the Epstein–Barr virus (EBV), as previously described.[68] Participants or their relatives gave written informed consent. This study was approved by the Hospital Doce de Octubre and the Spanish Council of Higher Research Institutional Review Boards. All patients were diagnosed by applying the revised El Escorial criteria.[69] […] Genetic testing for SOD1, TARDBP, FUS, and C9ORF72 was performed in all cases.
(§3) LCLs were grown in suspensions in T flasks, in an RPMI-1640 medium containing 2 mM L-glutamine, 100 μg/mL streptomycin/penicillin, and 10% (v/v) fetal bovine serum (FBS) and maintained in a humidified 5% CO2 incubator at 37 °C.
(§4) Whole cell lysates were prepared in RIPA-buffer (25 mM Tris-HCl, pH 7.6, 150 mM NaCl, 1 mM EGTA, 1% Igepal, 1% sodium deoxycholate, 0.1% SDS, 1 mM PSMF, 1 mM Na3VO4, 1 mM NaF, 1 μg/mL aprotinin, 1 μg/mL leupeptin, and 1 μg/mL pepstatin). […] Immunoblots were analyzed as described previously.[48] […]
(§5) Total RNA extraction, reverse transcription, and quantitative polymerase chain reaction (PCR) were done as detailed in previous articles.[72] […]

Data set [9] has as its system SOD1-ALS lymphoblasts. Put plainly: NRF2 pathway in SOD1-ALS lymphoblasts. Type of data set: cell-based, human. As to conditions: 20 μM, 24 h.
Excerpt: as §2, §3, §4, §5

For data set [10], the system named is NRF2. The data set can be described thus: 3×ARE-LUC luciferase reporter assay. It counts as cell-based, human. Here is the method:
Transient transfections of HEK293T cells were performed with the expression vectors for TK-Renilla (Promega, Madison, […]) and the expression vector ARE-LUC (Dr. J. Alam, Dept. of Molecular Genetics, Ochsner Clinic Foundation, New Orleans, LA). Cells were seeded on 24-well plates (75,000 cells per well), cultured for 16 h, and transfected using calcium phosphate. Eight hours after transfections, cells were treated with 3 different concentrations of the compounds (6, 20, and 60 μM). […] After 16 h, the cells were lysed and assayed with a dual-luciferase assay system (Promega) according to the manufacturer’s instructions. Relative light units were measured in a GloMax 96 microplate luminometer with dual injectors (Promega).

In data set [11] the target is human serum albumin (HSA) (Homo sapiens, UniProt P02768). Put plainly: Serum albumin binding by fluorescence quenching. As to conditions: HSA 2 μM, λex 280 nm, λem 337 nm.
human serum albumin (HSA), sequence (P02768 25-609): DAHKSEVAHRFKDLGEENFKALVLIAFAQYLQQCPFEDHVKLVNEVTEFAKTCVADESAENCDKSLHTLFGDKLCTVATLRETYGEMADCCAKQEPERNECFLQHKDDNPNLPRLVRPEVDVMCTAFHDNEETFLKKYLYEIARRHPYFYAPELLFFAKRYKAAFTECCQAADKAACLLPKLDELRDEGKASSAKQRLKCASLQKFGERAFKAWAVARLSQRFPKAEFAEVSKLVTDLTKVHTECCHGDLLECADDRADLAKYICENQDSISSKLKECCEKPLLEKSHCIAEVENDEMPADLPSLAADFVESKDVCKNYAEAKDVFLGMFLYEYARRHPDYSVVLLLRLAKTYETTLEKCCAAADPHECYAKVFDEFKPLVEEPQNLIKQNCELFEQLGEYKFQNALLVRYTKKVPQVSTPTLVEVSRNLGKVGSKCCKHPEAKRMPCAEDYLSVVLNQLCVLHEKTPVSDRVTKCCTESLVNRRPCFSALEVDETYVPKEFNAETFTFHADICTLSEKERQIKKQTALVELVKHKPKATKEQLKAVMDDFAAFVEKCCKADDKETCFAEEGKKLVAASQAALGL
Description: After each addition, the mixture was incubated at rt for 5 min, and then, the emission fluorescence spectra of HAS (λ = 280 nm) were measured using a Fluorometer Max-4P (Horiba Jobin Yvon). The data obtained were further processed using the Stern–Volmer and Scatchard models in GraphPad Prism 8.0 software.
Data set [12] in a line: Liver microsome stability assay. As to conditions: human, pooled human liver microsomes, pH 7.4.
Description: This assay provides information on the metabolic stability of early drug discovery compounds based on liver microsomes. […] The reaction was initiated by adding NADPH (1 mM final concentration). Aliquots of 150 μL were collected at defined time points (0, 5, 15, 30, and 60 min) and added to cold acetonitrile (150 μL) containing an internal standard (5 μg/mL warfarin) to stop the reaction and precipitate the protein. […] Data were log transformed and represented as half-life. All experiments were conducted in duplicates.

KEAP1, sequence (Q14145 whole entry): as the sequence (Q14145 whole entry) above

Regarding `O=C(CCc1ccc(O)c(O)c1)N1CCCN(S(=O)(=O)c2cccc3cnccc23)CC1` [Compound 1d, 3-(3,4-Dihydroxyphenyl)-1-(4-(isoquinolin-5-ylsulfonyl)-1,4-diazepan-1-yl)propan-1-one], in data set [1] (100 μM, read-out: FP % inhibition (± S.E.M.)), the inhibition at 100 µM is < 10%. Also, in [1] (FP and DSF, 100 μM or lower concentrations), the “inhibition of the NRF2–KEAP1 interaction” value is reported as “not able to inhibit”. Besides, the “activity as an inhibitor of the kinase GSK-3β” value in data set [2] was “negative results”. In [3], the “mRNA levels of HMOX1 and NQO1” value is “increased the mRNA levels”. Also, in data set [4], the “ability to reduce TDP-43 expression” value is “negative results” and the “ability to reduce aberrant TDP-43 phosphorylation” value is listed as “negative results”. Besides, in data set [5] (20 μM), the viability at 16 h, 20 µM was 100 ± 1.02%. Also, the viability at 16 h, 60 µM in [5] (60 μM) was 103.7 ± 0.837%. In addition, in [6], the “MTT (%)” value is listed as < 20%. Also, the “ΔTi (± S.E.M.)” value in data set [7] is “+0.2 (± 0.1) °C”. In [8], the “NEF2L2 mRNA levels” value is “did not produce changes” and the “levels of the NRF2 protein” value is listed as “significantly increased”. Besides, the “HMOX1 and NQO1 levels (mRNA and protein)” value in data set [9] is “capable of inducing HMOX1 and NQO1 levels in a very significant way”. Further, the “NRF2 induction, CD (concentration needed to double luciferase expression)” value in [10] (HEK293T, 3×ARE-LUC) stood at 1 µM. The fold induction at 20 µM in data set [10] (Homo sapiens, 16 h, 20 microM, supplementary CSV, read-out: NRF2 induction @ 20 microM (fold change)) was determined as 4.4 ± 0.27. For the same compound, in [10] (Homo sapiens, HEK-293T, 6 µM, HEK293T, 16 h, read-out: Luciferase assay response), the fold induction at 6 µM turned out to be 2.5 ± 0.05. In addition, the fold induction at 20 µM in data set [10] (Homo sapiens, HEK-293T, 20 µM, HEK293T, 16 h, read-out: Luciferase assay response) was found to be 4.4 ± 0.27. Also, the fold induction at 60 µM in data set [10] (Homo sapiens, HEK-293T, 60 µM, HEK293T, 16 h, read-out: Luciferase assay response) turned out to be 13.6 ± 1.6. The “activation of the NRF2 reporter” value in data set [10] (in words, 6, 20 and 60 μM) is “dose-dependent activation”. The “Stern–Volmer quenching constant KSV” value in data set [11] was 1.68 × 10^5 L mol^–1. Further, the half-life at 1 h, 8 µM in data set [12] worked out at 35.7 min.

As usually defined, the inhibition is the share of the control response that was lost under treatment. The term viability denotes a read-out of living cells in per cent, often relative to untreated cells. Usually half-life stands for the time needed for the level to fall by half in the phase considered. A high value points to slow decline.
